The term Solubility denotes the concentration that dissolves in the medium under given conditions. A higher Solubility goes with a readily soluble substance.

What all share (format): physicochemical
Data set [1] in a line: Hygroscopicity assessment by dynamic vapor sorption (DVS). The settings on record: for water uptake / hygroscopicity class: 25° C., 80% RH; for hygroscopicity class: Chinese Pharmacopeia 2010 definition; for form change after DVS test: XRPD before and after DVS test. On the procedure: XRPD studies was performed using a Panalytical Empyrean X-ray powder diffractometer. The parameters of the X-ray powder diffraction of the present disclosure are as follows: • X-ray Reflection: Cu, Kα • Kα1 (Å): 1.540598; Kα2 (Å): 1.544426 • Kα2/Kα1 intensity ratio: 0.50 • Voltage: 45 (kV) • Current: 40 (mA) • Scanning range: from 3.0 degree to 40.0 degree • DSC data in the present disclosure were acquired by a TA Q2000. The parameters of the DSC method of the present disclosure were as follows: • Heating rate: 10° C./min • Purge gas: nitrogen • TGA data in the present disclosure are acquired by a TA Q5000. The parameters of the TGA method of the present disclosure were as follow: • Heating rate: 10° C./min • Purge gas: nitrogen • Dynamic vapor sorption (DVS) data in the present disclosure were acquired by a SMS (Surface Measurement Systems) DVS Intrinsic. The parameters of the dynamic vapor sorption (DVS) method of the present disclosure were as follows: • Temperature: 25° C. • Gas and flow rate: nitrogen, 200 mL/min • dm/dt: 0.002%/min • RH range: 0% RH-95% RH Approximate 10 mg of Type B sample in the present disclosure was assessed by hygroscopicity using a dynamic vapor sorption (DVS) instrument, and tested by XRPD before and after DVS test.

Data set [2] in a line: Interconversion of crystal forms via heating and slurry competition experiments. The conditions noted are these: for form after slurry competition: slurry in various solvent systems. From the text: Relationships among Type A-F crystal forms were investigated via heating and slurry competition experiments.
Data set [3] is described as follows: Equilibrium solubility in water at room temperature for 24 hours. The settings on record: for Form Change: residual solids by XRPD after 24 hours in water at room temperature; for pH: solubility test in water, 24 hours; for pH / Solubility: room temperature; for Solubility: water, 24 hours equilibrium. Here is the method: 10 mg of Type A, B, D, and F samples each was added into a 1.5-mL glass vial, and 1.0 mL of water was then added. The mixture was rolled at 25 rpm at room temperature for 24 hours. The suspension was centrifuged and filtered to isolate the supernatant for HPLC concentration and purity testing and the residual solids were characterized by XRPD.

The nature of data set [4]: Solid-state stability assessment on storage (XRPD and HPLC purity). On the procedure:
Approximate 10 mg of Type A sample was added into each 1.5-mL glass vial and stored at 80° C. (closed) for 1 day, 25° C./60% RH and 40° C./75% RH (open) for 1 week, then tested by XRPD and HPLC purity. Approximate 4 mg of Type B sample was added into each 1.5-mL glass vial and stored at 80° C. (closed) for 1 day, 25° C./60% RH and 40° C./75% RH (open) for 1 week, then tested by XRPD and HPLC purity. Approximate 4 mg of Type D sample was added into each 1.5-mL glass vial and stored at 25° C./60% RH and 40° C./75% RH (open) for 1 week, then tested by XRPD and HPLC purity. Approximate 7 mg of Type F sample was added into each 1.5-mL glass vial and stored at 80° C. (closed) for 1 day, 25° C./60% RH and 40° C./75% RH (open) for 1 week, then tested by XRPD and HPLC purity.

Assay in data set [5]: as above
The settings on record: 92.5% RH for about 17 days.

The mark [6] stands for this setting: ACN, EtOH, MeOH/H2O (1:1, v/v) and H2O from RT to 50/70° C.
Where [7] appears, read: 80° C. (closed) 1 day and 25° C./60% RH, 40° C./75% RH (open) 1 week.
[8] abbreviates: 25° C./60% RH and 40° C./75% RH (open) 1 week.

≈ marks a conversion by molar mass, not a printed value. Entries after “also recorded” stand apart in the source; their conditions may differ.

With `C=CC(=O)N1CCC(c2ccc(C(N)=O)c(-c3ccc(Oc4ccccc4)cc3)n2)CC1` [Type B, 6-(1-acryloylpiperidin-4-yl)-2-(4-phenoxyphenyl)nicotinamide], in data set [1] (DVS), the water uptake turned out to be 0.5% and the hygroscopicity class result is “slightly hygroscopic”. Also, the “form change after DVS test” value in data set [1] is recorded as “did not change; also recorded: no form change”. In addition, in data set [2] (setting [6]), the form after slurry entry was “converted to Type F”. Besides, the “form after slurry competition” value in data set [2] is reported as “converted into anhydrate Type F”. In data set [3], the “Form Change” value is listed as “No”, the pH is given as 7.7 and the Solubility stood at 6 µg/mL (≈ 14 µM). The Purity/initial purity in data set [4] (25° C./60% RH (open)/1 week) came to 99.5%. This compound also registered a Purity/initial purity in data set [4] (40° C./75% RH (open)/1 week) of 99.7%. Moreover, in data set [4] (setting [7]), the “change in purity after storage” value is “no decrease in purity” and the “stability of the form after storage” value is “did not change; also recorded: stable”. The compound also came in with a Purity/initial purity in data set [4] (80° C. (closed)/1 day) of 99.7%.

`C=CC(=O)N1CCC(c2ccc(C(N)=O)c(-c3ccc(Oc4ccccc4)cc3)n2)CC1` [Type A, 6-(1-acryloylpiperidin-4-yl)-2-(4-phenoxyphenyl)nicotinamide]: in data set [1] (DVS), the hygroscopicity class entry is “hygroscopic”. The form after slurry result in data set [2] (setting [6]) is recorded as “converted to Type F”. Moreover, the “form after slurry competition” value in data set [2] is “converted into anhydrate Type F”. In data set [3], the “Form Change” value was “Yes, to Type B”. In data set [3], the pH was 7.4. Further, the crystallinity after storage entry in data set [5] is reported as “decreased”. Further, the Purity/initial purity amounted to 100.0% in data set [4] (25° C./60% RH (open)/1 week), 100.1% in data set [4] (40° C./75% RH (open)/1 week) and 100.0% in data set [4] (80° C. (closed)/1 day). Moreover, the “stability of the form after storage” value in data set [4] (setting [8]) is “relatively good physical and chemical stability”; in data set [4] (setting [7]), “did not change; also recorded: stable”. Besides, the “change in purity after storage” value in data set [4] (setting [7]) is “no decrease in purity”.

As to `C=CC(=O)N1CCC(c2ccc(C(N)=O)c(-c3ccc(Oc4ccccc4)cc3)n2)CC1` [Type F, 6-(1-acryloylpiperidin-4-yl)-2-(4-phenoxyphenyl)nicotinamide], in data set [1] (DVS), the water uptake is 1.2% and the hygroscopicity class entry is reported as “slightly hygroscopic”. Also, in data set [1], the “form change after DVS test” value was “did not change; also recorded: no form change”. Moreover, the relative thermodynamic stability entry in data set [2] (between RT and 50/70° C.) was “thermodynamically more stable form than Type A/B/D; also recorded: more stable anhydrous form among Type A/B/D/F”. For the same compound, in data set [3], the “Form Change” value was “No” and the pH was 6.9. Moreover, in data set [4] (25° C./60% RH (open)/1 week), the Purity/initial purity came out at 100.0%. In addition, the “stability of the form after storage” value in data set [4] (setting [8]) is “relatively good physical and chemical stability”. Further, the Purity/initial purity in data set [4] (40° C./75% RH (open)/1 week) is 100.0%. In data set [4] (setting [7]), the “change in purity after storage” value is reported as “no decrease in purity” and the “stability of the form after storage” value was “did not change; also recorded: stable”. In data set [4] (80° C. (closed)/1 day), this compound yielded a Purity/initial purity of 100.0%.

`C=CC(=O)N1CCC(c2ccc(C(N)=O)c(-c3ccc(Oc4ccccc4)cc3)n2)CC1` [Type D, 6-(1-acryloylpiperidin-4-yl)-2-(4-phenoxyphenyl)nicotinamide]: the “DVS finding” value in data set [1] (DVS) was “relative stable hydrate”. For the same compound, the form after slurry entry in data set [2] (MeOH/H2O (aw~0.5) and EtOH/H2O (aw=0~1) at RT) was “converted to anhydrate Type F”. Moreover, the form after dehydration result in data set [2] (dehydration at elevated temperature) was “converted to anhydrate Type E”. Further, the “form after slurry competition” value in data set [2] is recorded as “converted into anhydrate Type F”. In data set [3], the “Form Change” value was “No”, the pH stood at 8.0 and the Solubility worked out at 18 µg/mL (≈ 42.1 µM). This compound also showed a Purity/initial purity in data set [4] (25° C./60% RH (open)/1 week) of 99.9%. Further, in data set [4] (setting [8]), the “change in purity after storage” value is “no significant decrease in purity” and the “stability of the form after storage” value is reported as “did not change; also recorded: stable”. The compound also had a Purity/initial purity in data set [4] (40° C./75% RH (open)/1 week) of 99.9%. The Final form result in data set [4] (80° C. (closed)/1 day, XRPD) was “converted to a mixture of Type B and D; also recorded: converted to the mixture of Type B and D”.

Turning to `C=CC(=O)N1CCC(c2ccc(C(N)=O)c(-c3ccc(Oc4ccccc4)cc3)n2)CC1` [Type C, 6-(1-acryloylpiperidin-4-yl)-2-(4-phenoxyphenyl)nicotinamide], the form after slurry entry in data set [2] (H2O at 50° C. for about 21 days) is given as “convert to anhydrate Type B”.

The values are drawn from patent publication US11945792B2, “Crystalline forms of 6-(1-acryloylpiperidin-4-yl)-2-(4-phenoxyphenyl)nicotinamide” (BEIJING INNOCARE PHARMA TECH CO., LTD., priority 2018, dated 2024).
